{"source": "the supplement of paper PMC10307832", "test_in_all_cases": "relative viability (nuclei count vs DMSO), 5 days (fraction); higher = more cells survive", "key": {"NCI-H2023": {"system": "NCI-H2023", "in_short": "(§1)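 Medians of duplicate plates are given as relative viability. That measure is the nuclei count in treated wells divided by the count in vehicle wells. Counts were taken on 4× images of lung cancer cell lines in 1536-well plates, 5 days after pin-tool dosing the day after seeding with one drug alone or a fixed anchor-drug dose plus five library-drug doses (not always all listed) in √10 steps.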"}, "LU99A": {"system": "LU99A", "in_short": "as §1"}, "HCC-78": {"system": "HCC-78", "in_short": "as §1"}, "NCI-H1651": {"system": "NCI-H1651", "in_short": "as §1"}, "UMC-11": {"system": "UMC-11", "in_short": "as §1"}, "SW 1573": {"system": "SW 1573", "in_short": "as §1"}, "NCI-H2085": {"system": "NCI-H2085", "in_short": "as §1"}, "NCI-H650": {"system": "NCI-H650", "in_short": "as §1"}, "LC-2-ad": {"system": "LC-2-ad", "in_short": "as §1"}, "HARA": {"system": "HARA", "in_short": "as §1"}, "NCI-H1993": {"system": "NCI-H1993", "in_short": "as §1"}, "NCI-H1355": {"system": "NCI-H1355", "in_short": "as §1"}, "COR-L23": {"system": "COR-L23", "in_short": "as §1"}, "ABC-1": {"system": "ABC-1", "in_short": "as §1"}, "EPLC-272H": {"system": "EPLC-272H", "in_short": "as §1"}, "NCI-H1915": {"system": "NCI-H1915", "in_short": "as §1"}, "HCC-15": {"system": "HCC-15", "in_short": "as §1"}, "NCI-H358": {"system": "NCI-H358", "in_short": "as §1"}, "NCI-H2126": {"system": "NCI-H2126", "in_short": "as §1"}, "PC-14": {"system": "PC-14", "in_short": "as §1"}, "NCI-H838": {"system": "NCI-H838", "in_short": "as §1"}, "NCI-H2347": {"system": "NCI-H2347", "in_short": "as §1"}}}
{"smiles": "O=C(O)c1ccc(-c2c[nH]c3ncc(-c4ccccc4)cc23)cc1C1CCCC1", "note": "+ C[C@@H](Oc1cc(-c2cnn(C3CCNCC3)c2)cnc1N)c1c(Cl)ccc(F)c1Cl [Crizotinib] (partner 1 µM)", "values": [{"measurement": "relative viability", "setting": "NCI-H2023; first compound 0.04 µM", "result": 0.639}, {"measurement": "relative viability", "setting": "NCI-H2023; first compound 0.1265 µM", "result": 0.669}, {"measurement": "relative viability", "setting": "NCI-H2023; first compound 0.4 µM", "result": 0.572}, {"measurement": "relative viability", "setting": "NCI-H2023; first compound 1.265 µM", "result": 0.603}, {"measurement": "relative viability", "setting": "LU99A; first compound 0.04 µM", "result": 0.539}, {"measurement": "relative viability", "setting": "LU99A; first compound 0.1265 µM", "result": 0.678}, {"measurement": "relative viability", "setting": "LU99A; first compound 0.4 µM", "result": 0.503}, {"measurement": "relative viability", "setting": "LU99A; first compound 1.265 µM", "result": 0.486}, {"measurement": "relative viability", "setting": "HCC-78; first compound 0.04 µM", "result": 0.338}, {"measurement": "relative viability", "setting": "HCC-78; first compound 0.1265 µM", "result": 0.381}, {"measurement": "relative viability", "setting": "HCC-78; first compound 0.4 µM", "result": 0.328}, {"measurement": "relative viability", "setting": "HCC-78; first compound 1.265 µM", "result": 0.293}, {"measurement": "relative viability", "setting": "NCI-H1651; first compound 0.04 µM", "result": 0.852}, {"measurement": "relative viability", "setting": "NCI-H1651; first compound 0.1265 µM", "result": 0.929}, {"measurement": "relative viability", "setting": "NCI-H1651; first compound 0.4 µM", "result": 0.822}, {"measurement": "relative viability", "setting": "NCI-H1651; first compound 1.265 µM", "result": 0.742}, {"measurement": "relative viability", "setting": "UMC-11; first compound 0.04 µM", "result": 0.587}, {"measurement": "relative viability", "setting": "UMC-11; first compound 0.1265 µM", "result": 0.629}, {"measurement": "relative viability", "setting": "UMC-11; first compound 0.4 µM", "result": 0.646}, {"measurement": "relative viability", "setting": "UMC-11; first compound 1.265 µM", "result": 0.612}, {"measurement": "relative viability", "setting": "SW 1573; first compound 0.04 µM", "result": 0.769}, {"measurement": "relative viability", "setting": "SW 1573; first compound 0.1265 µM", "result": 0.892}, {"measurement": "relative viability", "setting": "SW 1573; first compound 0.4 µM", "result": 0.862}, {"measurement": "relative viability", "setting": "SW 1573; first compound 1.265 µM", "result": 0.925}, {"measurement": "relative viability", "setting": "NCI-H2085; first compound 0.04 µM", "result": 0.832}, {"measurement": "relative viability", "setting": "NCI-H2085; first compound 0.1265 µM", "result": 0.804}, {"measurement": "relative viability", "setting": "NCI-H2085; first compound 0.4 µM", "result": 0.878}, {"measurement": "relative viability", "setting": "NCI-H2085; first compound 1.265 µM", "result": 0.696}, {"measurement": "relative viability", "setting": "NCI-H650; first compound 0.04 µM", "result": 0.762}, {"measurement": "relative viability", "setting": "NCI-H650; first compound 0.1265 µM", "result": 0.844}, {"measurement": "relative viability", "setting": "NCI-H650; first compound 0.4 µM", "result": 0.561}, {"measurement": "relative viability", "setting": "NCI-H650; first compound 1.265 µM", "result": 0.465}, {"measurement": "relative viability", "setting": "LC-2-ad; first compound 0.04 µM", "result": 0.496}, {"measurement": "relative viability", "setting": "LC-2-ad; first compound 0.1265 µM", "result": 0.452}, {"measurement": "relative viability", "setting": "LC-2-ad; first compound 0.4 µM", "result": 0.412}, {"measurement": "relative viability", "setting": "LC-2-ad; first compound 1.265 µM", "result": 0.364}, {"measurement": "relative viability", "setting": "HARA; first compound 0.04 µM", "result": 0.985}, {"measurement": "relative viability", "setting": "HARA; first compound 0.1265 µM", "result": 1.04}, {"measurement": "relative viability", "setting": "HARA; first compound 0.4 µM", "result": 1.02}, {"measurement": "relative viability", "setting": "HARA; first compound 1.265 µM", "result": 0.763}, {"measurement": "relative viability", "setting": "NCI-H1993; first compound 0.04 µM", "result": 0.805}, {"measurement": "relative viability", "setting": "NCI-H1993; first compound 0.4 µM", "result": 0.805}, {"measurement": "relative viability", "setting": "NCI-H1993; first compound 1.265 µM", "result": 0.812}, {"measurement": "relative viability", "setting": "NCI-H1355; first compound 0.04 µM", "result": 1.05}, {"measurement": "relative viability", "setting": "NCI-H1355; first compound 0.1265 µM", "result": 1.14}, {"measurement": "relative viability", "setting": "NCI-H1355; first compound 0.4 µM", "result": 1.04}, {"measurement": "relative viability", "setting": "NCI-H1355; first compound 1.265 µM", "result": 0.752}, {"measurement": "relative viability", "setting": "COR-L23; first compound 0.04 µM", "result": 0.584}, {"measurement": "relative viability", "setting": "COR-L23; first compound 0.1265 µM", "result": 0.508}, {"measurement": "relative viability", "setting": "COR-L23; first compound 0.4 µM", "result": 0.681}, {"measurement": "relative viability", "setting": "COR-L23; first compound 1.265 µM", "result": 0.476}, {"measurement": "relative viability", "setting": "ABC-1; first compound 0.04 µM", "result": 1.4}, {"measurement": "relative viability", "setting": "ABC-1; first compound 0.1265 µM", "result": 1.06}, {"measurement": "relative viability", "setting": "ABC-1; first compound 0.4 µM", "result": 1.18}, {"measurement": "relative viability", "setting": "ABC-1; first compound 1.265 µM", "result": 0.98}, {"measurement": "relative viability", "setting": "EPLC-272H; first compound 0.04 µM", "result": 0.974}, {"measurement": "relative viability", "setting": "EPLC-272H; first compound 0.1265 µM", "result": 1.01}, {"measurement": "relative viability", "setting": "EPLC-272H; first compound 0.4 µM", "result": 0.989}, {"measurement": "relative viability", "setting": "EPLC-272H; first compound 1.265 µM", "result": 0.655}, {"measurement": "relative viability", "setting": "NCI-H1915; first compound 0.04 µM", "result": 0.96}, {"measurement": "relative viability", "setting": "NCI-H1915; first compound 0.1265 µM", "result": 0.898}, {"measurement": "relative viability", "setting": "NCI-H1915; first compound 0.4 µM", "result": 0.67}, {"measurement": "relative viability", "setting": "NCI-H1915; first compound 1.265 µM", "result": 0.636}, {"measurement": "relative viability", "setting": "HCC-15; first compound 0.04 µM", "result": 0.845}, {"measurement": "relative viability", "setting": "HCC-15; first compound 0.1265 µM", "result": 0.79}, {"measurement": "relative viability", "setting": "HCC-15; first compound 0.4 µM", "result": 0.633}, {"measurement": "relative viability", "setting": "HCC-15; first compound 1.265 µM", "result": 0.339}, {"measurement": "relative viability", "setting": "NCI-H358; first compound 0.04 µM", "result": 0.633}, {"measurement": "relative viability", "setting": "NCI-H358; first compound 0.1265 µM", "result": 0.579}, {"measurement": "relative viability", "setting": "NCI-H358; first compound 0.4 µM", "result": 0.512}, {"measurement": "relative viability", "setting": "NCI-H358; first compound 1.265 µM", "result": 0.352}, {"measurement": "relative viability", "setting": "NCI-H2126; first compound 0.04 µM", "result": 1.04}, {"measurement": "relative viability", "setting": "NCI-H2126; first compound 0.1265 µM", "result": 1.03}, {"measurement": "relative viability", "setting": "NCI-H2126; first compound 0.4 µM", "result": 0.995}, {"measurement": "relative viability", "setting": "NCI-H2126; first compound 1.265 µM", "result": 0.824}, {"measurement": "relative viability", "setting": "PC-14; first compound 0.04 µM", "result": 0.931}, {"measurement": "relative viability", "setting": "PC-14; first compound 0.1265 µM", "result": 0.849}, {"measurement": "relative viability", "setting": "PC-14; first compound 0.4 µM", "result": 0.921}, {"measurement": "relative viability", "setting": "PC-14; first compound 1.265 µM", "result": 0.672}, {"measurement": "relative viability", "setting": "NCI-H838; first compound 0.04 µM", "result": 0.794}, {"measurement": "relative viability", "setting": "NCI-H838; first compound 0.1265 µM", "result": 0.952}, {"measurement": "relative viability", "setting": "NCI-H838; first compound 0.4 µM", "result": 0.848}, {"measurement": "relative viability", "setting": "NCI-H838; first compound 1.265 µM", "result": 0.88}, {"measurement": "relative viability", "setting": "NCI-H2347; first compound 0.04 µM", "result": 0.621}, {"measurement": "relative viability", "setting": "NCI-H2347; first compound 0.1265 µM", "result": 0.707}, {"measurement": "relative viability", "setting": "NCI-H2347; first compound 0.4 µM", "result": 0.642}, {"measurement": "relative viability", "setting": "NCI-H2347; first compound 1.265 µM", "result": 0.568}]}
